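In this assay, cells in 96-well plates receive the compound at five concentrations for 48 hours. Endpoints are linearly interpolated between the surrounding concentrations. At the GI50, growth is halved.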 Activity calls are given as the source filed them. Cut-off read from the data, not from the text of the source: active = GI50 up to about 1.1 µM and inactive = higher.
Legend:
Experiment in all cases: DTP human tumour cell line panel, 48 h
A498 = system: A498
SK-MEL-2 = system: SK-MEL-2
EKVX = system: EKVX
IGROV-1 = system: IGROV-1
RPMI-8226 = system: RPMI-8226
RXF 393 = system: RXF 393
NCI-H460 = system: NCI-H460
M14 = system: M14
SK-MEL-28 = system: SK-MEL-28
OVCAR-3 = system: OVCAR-3
A549 = system: A549
OVCAR-4 = system: OVCAR-4
KM12 = system: KM12
OVCAR-5 = system: OVCAR-5
HL-60 = system: HL-60
SK-OV-3 = system: SK-OV-3

Measured: GI50

N#Cc1ccc(/C=C(/C(=O)c2ccccc2)c2ccccc2)cc1
inactive: A498 17.9 µM | SK-MEL-2 15 µM | EKVX 18.8 µM | IGROV-1 23.7 µM | RPMI-8226 2.59 µM | RXF 393 17.8 µM | NCI-H460 16.5 µM | M14 13.3 µM | SK-MEL-28 15.8 µM | OVCAR-3 16.1 µM | A549 16.9 µM | OVCAR-4 10.2 µM | KM12 3.24 µM | OVCAR-5 18 µM | HL-60 2.67 µM | SK-OV-3 20.5 µM

C[C@@H](N[C@H]1CCC[C@@H]1O)c1ccccc1.C[C@@H](N[C@H]1CCC[C@H]1O)c1ccccc1
inactive: A498 > 100 µM | SK-MEL-2 > 100 µM | EKVX > 100 µM | IGROV-1 > 100 µM | RPMI-8226 53.7 µM | RXF 393 > 100 µM | NCI-H460 37.8 µM | M14 49 µM | SK-MEL-28 58.3 µM | OVCAR-3 > 100 µM | A549 > 100 µM | OVCAR-4 > 100 µM | KM12 41.4 µM | HL-60 43.6 µM | SK-OV-3 > 100 µM

NC(=O)c1ncn2c1NCC1OC2C(O)C1O (stereo unspecified)
inactive: A498 > 100 µM | SK-MEL-2 > 100 µM | EKVX > 100 µM | IGROV-1 > 100 µM | RXF 393 > 100 µM | M14 > 100 µM | SK-MEL-28 > 100 µM | OVCAR-3 > 100 µM | A549 > 100 µM | OVCAR-4 > 100 µM | KM12 > 100 µM | OVCAR-5 > 100 µM | HL-60 > 100 µM | SK-OV-3 > 100 µM

COc1ccc(OC(C)C(=O)O)c2c(=O)ccccc12 (stereo unspecified)
inactive: A498 > 100 µM | SK-MEL-2 > 100 µM | EKVX > 100 µM | IGROV-1 > 100 µM | RPMI-8226 > 100 µM | RXF 393 > 100 µM | NCI-H460 > 100 µM | M14 > 100 µM | SK-MEL-28 > 100 µM | OVCAR-3 > 100 µM | A549 > 100 µM | OVCAR-4 > 100 µM | KM12 > 100 µM | OVCAR-5 > 100 µM | HL-60 > 100 µM | SK-OV-3 > 100 µM

COc1cc(CC2c3cc(OC)c(OC)cc3CCN2C)c(Oc2cc3c(cc2OC)-c2c(OC)c(OC)c(OC)c4c2C(C3)N(C)CC4)cc1OC (stereo unspecified)
inactive: A498 15.3 µM | SK-MEL-2 14.6 µM | EKVX 16.6 µM | IGROV-1 14.3 µM | RPMI-8226 14 µM | RXF 393 2.9 µM | NCI-H460 15.6 µM | M14 2.4 µM | SK-MEL-28 9.64 µM | OVCAR-3 12.3 µM | A549 15.9 µM | OVCAR-4 16 µM | KM12 12.7 µM | OVCAR-5 16.2 µM | HL-60 9.29 µM | SK-OV-3 19.7 µM

OCC(O)COc1ccc(F)cc1 (stereo unspecified)
inactive: A498 > 100 µM | SK-MEL-2 > 100 µM | EKVX > 100 µM | IGROV-1 > 100 µM | RXF 393 > 100 µM | NCI-H460 > 100 µM | M14 > 100 µM | SK-MEL-28 > 100 µM | OVCAR-3 > 100 µM | A549 > 100 µM | OVCAR-4 > 100 µM | KM12 > 100 µM | OVCAR-5 > 100 µM | HL-60 > 100 µM | SK-OV-3 > 100 µM

CC(=O)O[C@H]1CC[C@@]2(C)C(=CC[C@H]3C4=CC=C(C(C)=O)[C@@]4(C)CCC32)C1 (stereo partly specified)
inactive: A498 32.4 µM | EKVX 13.1 µM | IGROV-1 56.2 µM | RPMI-8226 15.3 µM | RXF 393 26.5 µM | NCI-H460 43.7 µM | M14 33.7 µM | SK-MEL-28 31 µM | OVCAR-3 35.9 µM | A549 36.4 µM | OVCAR-4 40.6 µM | KM12 19.9 µM | OVCAR-5 27.9 µM | HL-60 18 µM | SK-OV-3 > 100 µM

CC(C)CCCC(C)[C@H]1CCC2[C@@H]3CCC4Nc5nocc5C[C@]4(C)C3CC[C@@]21C (stereo partly specified)
inactive: A498 21.6 µM | SK-MEL-2 20.7 µM | EKVX 16.1 µM | IGROV-1 25.6 µM | RPMI-8226 20.3 µM | RXF 393 14.8 µM | NCI-H460 20 µM | M14 16.3 µM | OVCAR-3 5.61 µM | A549 21.2 µM | OVCAR-4 19.4 µM | KM12 19.9 µM | OVCAR-5 > 10 µM | HL-60 9.02 µM | SK-OV-3 19.4 µM

CC(=O)N(C)C=C1C(=O)N(C)C(=O)N(C)C1=O
inactive: A498 > 100 µM | SK-MEL-2 > 100 µM | EKVX > 100 µM | RPMI-8226 > 100 µM | RXF 393 > 100 µM | NCI-H460 > 100 µM | M14 > 100 µM | SK-MEL-28 > 100 µM | OVCAR-3 > 100 µM | A549 > 100 µM | OVCAR-4 > 100 µM | KM12 > 100 µM | OVCAR-5 > 100 µM | HL-60 > 100 µM

— ChEMBL document CHEMBL1201862, “PubChem BioAssay data set” (2004)
